According to ChEMBL document CHEMBL1201862, “PubChem BioAssay data set” (2004):
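Where inhibition never reached the appropriate level, the endpoint shown equals the highest concentration tested. Otherwise, values were interpolated linearly from a five-concentration, 48-hour dose response in 96-well plates. Here, GI50 denotes the concentration required for 50% inhibition of growth.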 The source made the active and inactive calls. Rule as the data show it: active = GI50 up to about 1.1 µM and inactive = higher.

Legend:
Test in all cases: growth of human tumour cells (NCI), 48 h
XF498 = system: XF498
RXF 631 = system: RXF 631
SNB-78 = system: SNB-78
HOP-18 = system: HOP-18
KM-20L2 = system: KM-20L2
M19-MEL = system: M19-MEL
DMS-273 = system: DMS-273
LXFL 529 = system: LXFL 529
DLD-1 = system: DLD-1

Measured: GI50

N=C(N)NS(=O)(=O)c1ccc(NC(=O)c2cccc3c(Nc4ccc(S(=O)(=O)N=C(N)N)cc4)c4ccccc4nc23)cc1
inactive: XF498 > 100 µM | RXF 631 > 100 µM | SNB-78 24.8 µM | HOP-18 > 100 µM | KM-20L2 37.5 µM | M19-MEL 47.4 µM | DMS-273 55.2 µM | LXFL 529 26.5 µM | DLD-1 92.9 µM
